Read-outs that look alike come from different tables or passages of the source.
Columns and labels:
[1] = test system: HPNE cells (normal immortalized pancreatic epithelial cells); experiment: Growth assay (crystal violet), HPNE cells; assay type: cell-based, human; conditions: 3 days treatment, crystal violet retention assay
Protocol: . The IC50 of most of the synthetic biguanides in HPNE cells was higher than for cancer cells (Supplementary Table S12).
All chemicals were purchased from Aldrich Chemicals in their highest purity and used without further purification. Deuterated dimethylsulfoxide (DMSO-d^6) and deuterated chloroform (CDCl3) were purchased from CDN Isotopes. NMR spectra were recorded on Bruker advance 400 and 100 spectrometers. Coupling constants are given in hertz (Hz) and chemical shifts are given in parts per million (ppm, δ) measured relative to the residual solvent (the multiplicity of the signals are given as s: singlet, d: doublet, t: triplet, and m: multiplet). High-resolution mass spectra (HRMS) were recorded on a TSQ Quantum Ultra (Thermo Scientific) triple quadrupole with accurate mass option instrument (Université de Montréal Mass Spectrometry Facility). MS experiences were performed using an UltrafleXtreme MALDI TOF/TOF mass spectrometer equipped with a SmartBeam II Nd:Yag/355 nm laser operating at 1 kHz and providing a laser focus down to 20 μm in diameter (Bruker Daltonics, Billerica, MA). The data acquisition for MS was performed in positive ion mode using the linear geometry with flexControl 3.4 (Bruker Daltonics, Billerica, MA). Acceleration voltage was set to + 25 kV and all other instrumental parameters (delayed extraction parameters, source voltages, detector gain, laser energy, etc.) were optimized for maximum S/N for the drug compounds. L-α-Phosphatidylcholine was purchased from Avanti Polar Lipids. Transport and depolarization studies as well as absorbance measurements were performed on a Varian Cary Eclipse fluorescence spectrophotometer. The hemolysis assays were performed on a Fluostar Optima plate reader. Single crystals of C18H18F3N5O3S were obtained from chloroform. A suitable crystal was selected and analysed on a Bruker Venture Metaljet diffractometer. Crystal violet retention assay was used for cell growth assays and IC50 were determined using Prism (GraphPad). NAD/NADH quantitation colorimetric kit (#K337-100) from Biovision was used according to manufacturer’s instructions. ECAR (extracellular acidification rate) and OCR of KP4 cells (oxygen consumption rate) were measured on a Seahorse XF-24 (Agilent).
Experimental. KP4 (Riken RCB1005) and PSN1 (ATCC: CRM-CRL-3211), were cultured in Dulbecco's modified Eagle's medium (DMEM) (Wisent, St-Bruno, QC) supplemented with 10 % of fetal bovine serum (FBS) (Wisent). HPNE hTERT (ATCC: CRL1423) were cultured in a mix of 75% DMEM without glucose (Sigma Cat#. D-5030) with additional 2 mM L-glutamine and 1.5 g/L sodium bicarbonate, 25% Medium M3 Base (Incell Corp. Cat# M300F- 500), fetal bovine serum 5% (wisent 10 ng/ml human recombinant EGF (Sigma-Aldrich), 5.5 mM D-glucose (Sigma-Aldrich), 750 ng/ml puromycin (Sigma-Aldrich). For dose-response assays, cells were seeded in 96 well plates (company). After 24 h, treatments were applied and cells were grown for 3 more days. Crystal violet retention assay used for cell growth assays were described previously^2. The data is expressed as relative absorbance of crystal violet extracted from the cells and diluted in 10 % acetic acid. IC50 were determined using Prism (GraphPad). Tumor spheres were grew according to Ferbeyre et al^3.

[2] = test system: KP4 cells sub-cutaneous xenografts; experiment: KP4 sub-cutaneous xenografts in nude mice; conditions: 50 mg/kg/day IP, 5 day/week
From the text: This dose was chosen from previous work on biguanides to treat mice with pancreatic cancer.
Figure 5 Progression of the volume of KP4 cells sub-cutaneous xenografts performed in nude mice over 37 days. […] (B) Body weight of mice seven days after treatment. […] Representative images shown. Scale bar = 100 µm. […] Results are shown in graphics comparing the percentage of cells stained in each category and the intensity of staining. (E,G) Images of the most representative phenotypes for KI67 staining (E) and cleaved caspase 3 (G).
Experimental. All experiments were performed in accordance to the rules of the in vivo ethical committe of University of Montreal (CDEA #17-103). 6-7 weeks old female nude mice (Hsd:Athymic Nude- Foxn1nu, Envigo) were implanted sub-cutaneously with 750.000 KP4 cells in 100μl of a sterile mix of 20% Matrigel (Corning) in saline solution. Tumor volume was determined by using a caliper, following the formula 4/3*Π*(L*W*T) were L represent the length of the tumor, W, the width, and T, the thickness (all measured in millimeter). […] The compounds were dissolved in the vehicle: 45% Propyleneglycol (Sigma-Aldrich) +5% Tween 80 (Sigma-Aldrich) + ddH2O.

[3] = Octanol/water partition (logP) of compound 1b; assay type: physicochemical; conditions: for logP at 24 h: octanol/water
Protocol: Experimental. A 10 µM or 20 µM solution of 1b was prepared in 5 ml of octanol and mixed with 5 ml distilled water at 25°C The solution was stirred and was left to settle for 24 hours before the absorbance of the octanol fraction was measured. The values obtained were fitted on a calibration curve prepared by measuring the absorbance of 1b in octanol at various concentrations (2.5, 10, 15, 20 and 30 µM). The logP was calculated using the following formula: […]
Where [1b]oct is the concentration of 1b in octanol and [1b]water is the concentration of 1b in water.

N=C(N)NC(=N)NCc1ccc(C#Cc2ccccc2)cc1 [1b, 4-(phenylethynyl)benzylbiguanide]
IC50 [1]: 80.9 µM
Effect on body weight [2]: did not affect body weight
Tolerability in vivo [2]: well tolerated
Effect on tumor volume ([2]; from day 11 post engraftment, 37 days): significantly reduced tumor volume
[1b] in octanol ([3]; Partition 1 (10 µM)): 6.91 µM
[1b] in water ([3]; Partition 1 (10 µM)): 3.09 µM
[1b] in octanol ([3]; Partition 2 (20 µM)): 15.15 µM
[1b] in water ([3]; Partition 2 (20 µM)): 4.85 µM
logP at 24 h ([3]; Partition 1 (10 µM), 25°C, 24 hours, read-out: logP): 0.35
logP at 24 h ([3]; Partition 2 (20 µM), 25°C, 24 hours, read-out: logP): 0.5
logP at 24 h ([3]; logP (mean of partitions 1 and 2), 25°C, spread ± 0.10 in its own column): 0.42
logP at 24 h ([3]; read-out: logP): 0.4

— article PMC8110578, “Phenylethynylbenzyl-modified biguanides inhibit pancreatic cancer tumor growth” (Scientific Reports, 2021)
